Source: patent US8946266B2, “Substituted triazole and imidazole derivatives as gamma secretase modulators” (Janssen Pharmaceuticals, Inc., priority 2009, dated 2015)

How the values were obtained:
[1] = test system: Aβ42; experiment: In vivo efficacy, Method 2: brain soluble Aβ42 lowering 4 h after a single oral dose, ELISA (Table 4b); design: species or system mouse; conditions: dose 30 mg/kg oral dosing
Summary of the method: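 Overnight-fasted non-transgenic rodents got a single oral dose of 30 mg/kg in 20% Captisol or 20% hydroxypropyl β-cyclodextrin and were killed 4 h later. Right-hemisphere soluble fraction (0.4% DEA/50 mM NaCl extract, neutralised) was assayed for Aβ42 by sandwich ELISA with fluorogenic read-out, compared with untreated animals.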

[2] = test system: Aβtotal; experiment: In vivo efficacy, Method 2: brain soluble Aβtotal lowering 4 h after a single oral dose, ELISA (Table 4b); design: species or system mouse; conditions: dose 30 mg/kg oral dosing
Summary of the method: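 Non-transgenic mice or rats, fasted overnight, received a single oral dose (30 mg/kg) in 20% Captisol or 20% hydroxypropyl β-cyclodextrin, or vehicle, and were sacrificed after 4 h. Right brain hemisphere was extracted in 0.4% DEA/50 mM NaCl, and soluble Aβtotal in the high-speed supernatant was measured by sandwich ELISA (JRF/rAβ/2 capture, biotinylated 4G8 detection, fluorogenic read-out).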

melting point [°C] | Structure (SMILES) | Aβ42 (% Ctrl) _Mean [1] [% Ctrl] | Aβtotal (% Ctrl) _Mean [2] [% Ctrl]
115.8 | COc1cc(-c2nc(-c3ccccc3)n(C)n2)ccc1-n1cnc(C)c1 [Compound 9] | – | –
– | COc1cc(-c2nc(Nc3ccc(F)cc3C(F)(F)F)n(C)n2)ccc1-n1cnc(C)c1 [Compound 15] | 37 | −5
– | COc1cc(-c2nc(Nc3cccc(C(F)(F)F)c3)n(C)n2)ccc1-n1cnc(C)c1 [Compound 146] | 17 | 2
